# Laboratory results reported in patent US20080305186A1, “Method and Composition for the Treatment of Cardiac Hypertrophy” (BOARD OF REGENTS, THE UNIVERSITY OF TEXAS SYSTEM, priority 2007, published 2008).
# System: cardiac gene expression
# Experiment: Microarray analysis of cardiac gene expression (GeneChip Mouse Genome 430 2.0)
# Assay type: in vivo, mice
# Description: Microarray Sample Preparation and Analysis. Animal hearts were rapidly removed, and the atria and right ventricles were cut and immediately plunged into TRIzol Reagent (Life Technologies). Total RNA was isolated following the manufacturer's instructions, purified by phenol-chloroform extraction and then ethanol precipitation, and 20 μg further processed for microarray analysis. Briefly, cDNA synthesis, in vitro transcription, and labeling and fragmentation to produce the oligonucleotide probes were performed as instructed by the GeneChip manufacturer (Affymetrix). The probes were first hybridized to a test array (Affymetrix) and then to the GeneChip Mouse Genome 430 2.0 Array, using the GeneChip Hybridization Oven 640. The chips were washed in a GeneChip Fluidics Station 450 (Affymetrix), and the results were visualized with a GeneChip G7 scanner (Affymetrix). RMA normalization, pairwise comparisons, Student's t test and Benjamini and Hochberg correction were subsequently performed using GeneSifter (VizX Labs, Seattle, Wash.) and Spotfire DecisionSite 8.3 (Spotfire, Inc., Somerville, Mass.).
# Effects on Gene Expression Profile. […] One mouse heart was used for each array, and was performed in triplicate, generating a total of 12 arrays. GeneSifter was used to perform RMA normalization, pairwise comparisons of averaged signal intensity values, and Student's t-test with Benjamini and Hochberg correction, and Spotfire was used to perform pairwise comparisons. […] Additionally, genes that were altered between any two N or cardiac hypertrophy samples were removed, as these alterations most likely represented normal variations between mice.
# [1] = CH vs drug-treated isoproterenol mice
compound,measurement,setting,value
C[C@H]1c2cccc(O)c2C(=O)C2=C(O)[C@]3(O)C(=O)C(C(N)=O)=C(O)[C@@H](N(C)C)[C@@H]3[C@@H](O)[C@@H]21 [doxycycline],"Number of Altered Genes, Average FC (1.5-fold)",[1],2929
same,"Number of Altered Genes, Average FC (2-fold)",[1],417
same,"Number of Altered Genes, Minus disease variability",[1],578
same,"Number of Altered Genes, Minus natural variability",[1],994
same,"Number of Altered Genes, Reproducible",[1],497
same,"Number of Altered Genes, Student's t test",[1],2274
same,"Number of Altered Genes, Correction","CH vs drug-treated isoproterenol mice, Benjamini and Hochberg",2034
same,"Number of Altered Genes, Disease-specific","CH vs drug-treated isoproterenol mice, of 779 genes altered N vs CH, altered in the reverse direction",327
same,FC EST,"GenBank AA419994, vs mice given only isoproterenol",−1.7
same,FC Metallothionein 2 (Mt2),"GenBank AA796766, vs mice given only isoproterenol",−5.5
same,FC Prostaglandin D synthetase (Ptgds),"GenBank AB006361, vs mice given only isoproterenol",−2.0
same,"FC Potassium channel, subfamily K, member 3 (Kcnk3)","GenBank AF065162, vs mice given only isoproterenol",1.7
same,FC Small inducible cytokine A9 (Scya9) (Ccl9) (Mip-1[…]),"GenBank AF128196, vs mice given only isoproterenol",−2.0
same,FC Group V phospholipase A2 (Pla2g5),"GenBank AF162713, vs mice given only isoproterenol",2.2
same,FC GABA-A receptor-associated protein-like protein 1 (Gabarapl1),"GenBank AF180518, 1st listing, vs mice given only isoproterenol",−3.6
same,FC GABA-A receptor-associated protein-like protein 1 (Gabarapl1),"GenBank AF180518, 2nd listing, vs mice given only isoproterenol",−3.1
same,FC Toll-like receptor 4 (TLR4),"GenBank AF185285, heart, drug + isoproterenol vs isoproterenol-only mice, CH vs normal FC 2.2",−1.9 fold
same,FC TSC22-related inducible leucine zipper 3c (Tilz3c) (Dsip1),"GenBank AF201289, heart, drug + isoproterenol vs isoproterenol-only mice, CH vs normal FC 2.7",−2.3 fold
same,FC Homeodomain interacting protein kinase 2 (Hipk2),"GenBank AF208292, vs mice given only isoproterenol",1.9
same,FC Cytochrome b-5 reductase (Cyb5r3),"GenBank AF332060, vs mice given only isoproterenol",1.7
same,FC Transcription factor myocardin (Myocd),"GenBank AF384055, heart, drug + isoproterenol vs isoproterenol-only mice, CH vs normal FC −1.6",4.0 fold
same,FC F-box-WD40 repeat protein 6 (Fbxw6),"GenBank AF391192, vs mice given only isoproterenol",2.9
same,FC F-box only protein 32 (Fbxo32),"GenBank AF441120, vs mice given only isoproterenol",−3.3
same,FC FK506 binding protein 5 (51 kDa) (Fkbp5),"GenBank AI098139, vs mice given only isoproterenol",−4.1
same,"FC Myosin binding protein C, fast-type (Mybpc2)","GenBank AI326984, vs mice given only isoproterenol",−3.2
same,FC Heparan sulfate 2-O-sulfotransferase 1 (Hs2st1),"GenBank AI451467, vs mice given only isoproterenol",2.2
same,FC EST,"GenBank AI467657, 1st listing, vs mice given only isoproterenol",−1.9
same,FC EST,"GenBank AI467657, 2nd listing, vs mice given only isoproterenol",−1.6
same,FC EST,"GenBank AI480750, vs mice given only isoproterenol",1.7
same,FC Interferon activated gene 205 (Ifi205),"GenBank AI481797, vs mice given only isoproterenol",−2.2
same,"FC Protein tyrosine phosphatase, receptor-type, F interacting protein, binding protein 2 (Ppfibp2)","GenBank AI503166, vs mice given only isoproterenol",−2.0
same,FC Dipeptidase 1 (Dpep1),"GenBank AI647687, vs mice given only isoproterenol",−2.0
same,"FC Homocysteine-inducible, endoplasmic reticulum stress-inducible, ubiquitin-like domain member 1 (Herpud1)","GenBank AI835088, vs mice given only isoproterenol",−3.0
same,"FC Sulfotransferase family 1A, phenol-preferring, member 1 (Sult1a1)","GenBank AK002700, vs mice given only isoproterenol",−3.7
same,FC GPI-ahored HDL-binding protein 1 (Gpihbp1),"GenBank AK003305, vs mice given only isoproterenol",−1.8
same,FC Ets variant gene 5 (Etv5),"GenBank AK003461, vs mice given only isoproterenol",−2.0
same,FC Peptidylprolyl isomerase (cyclophilin)-like 1 (Ppil1),"GenBank AK004331, vs mice given only isoproterenol",1.8
same,FC Extra cellular link domain-containing 1 (Xkd1),"GenBank AK004726, vs mice given only isoproterenol",−1.8
same,FC SRY-box containing gene 17 (Sox17),"GenBank AK004781, vs mice given only isoproterenol",−1.6
same,"FC Phospholipase A2 group VII (platelet-activating factor acetylhydrolase, plasma) (Pla2g7)","GenBank AK005158, vs mice given only isoproterenol",−2.2
same,FC Methyl-CpG binding domain protein 1 (Mbd1),"GenBank AK007371, 1st listing, vs mice given only isoproterenol",−2.5
same,FC Methyl-CpG binding domain protein 1 (Mbd1),"GenBank AK007371, 2nd listing, vs mice given only isoproterenol",−2.0
same,FC Homeobox only domain (Hod),"GenBank AK009007, vs mice given only isoproterenol",1.5
same,FC F-box and leucine-rich repeat protein 20 (Fbxl20),"GenBank AK012109, vs mice given only isoproterenol",−2.0
same,FC Dual specificity phosphatase 4 (Dusp4),"GenBank AK012530, vs mice given only isoproterenol",−2.4
same,FC Hydroxyacylglutathione hydrolase-like (Haghl),"GenBank AK012748, vs mice given only isoproterenol",2.0
same,FC Leucine-rich repeat-containing 52 (Lrrc52),"GenBank AK015134, vs mice given only isoproterenol",−2.6
same,FC Sphingosine kinase 2 (Sphk2),"GenBank AK016616, vs mice given only isoproterenol",1.5
same,FC DNA-damage-inducible transcript 4 (Ddit4),"GenBank AK017926, vs mice given only isoproterenol",−5.6
same,FC Kelch-like 24 (Khl24),"GenBank AK018314, vs mice given only isoproterenol",−2.1
same,"FC Transforming, acidic coiled-coil containing protein (Tacc1)","GenBank AK019530, heart, drug + isoproterenol vs isoproterenol-only mice, CH vs normal FC −2.1",3.2 fold
same,FC Protein arginine N-methyltransferase 1 (Prmt1),"GenBank AK020120, vs mice given only isoproterenol",1.8
same,FC Hydroxyacylglutathione hydrolase-like (Haghl),"GenBank AK021220, vs mice given only isoproterenol",1.8
same,FC Phosphodiesterase 7A (Pde7a),"GenBank AU015378, vs mice given only isoproterenol",−2.2
same,FC p53 regulated PA26 nuclear protein (Sestrin 1) (Sesn1),"GenBank AV016566, vs mice given only isoproterenol",−2.3
same,FC EST,"GenBank AV032877, vs mice given only isoproterenol",−1.5
same,FC Ectonucleoside triphosphate diphosphohydrolase 1 (Entpd1),"GenBank AV117919, vs mice given only isoproterenol",−2.1
same,FC F-box and leucine-rich repeat protein 20 (Fbxl20),"GenBank AV120094, vs mice given only isoproterenol",−1.5
same,FC Transthyretin (Ttr),"GenBank AV152953, heart, drug + isoproterenol vs isoproterenol-only mice, CH vs normal FC 4.4",−2.8 fold
same,"FC Solute carrier family 10 (sodium/bile acid cotransporter family), member 6 (Slc10a6)","GenBank AV244484, vs mice given only isoproterenol",−5.3
